In one data set the test system is GDH. The arrangement: method as in PMID 36455296. Conditions: read-out: GDH inhibition IC50; cited from earlier work.
Data set [1] deals with pentobarbital-induced sleeping behaviors. The arrangement: method as in PMID 28066138. Conditions: cited from earlier work.
Data set [2] deals with rat hypothalamic primary neuronal cells. The arrangement: method as in PMID 28066138. To be noted: cited from earlier work.
The subject of a further data set is HepG2 cells. The arrangement: method as in earlier work. To be noted: free fatty acid mixture (oleate:palmitate = 2:1); cited from earlier work.
Data set [3] deals with adipose stem cells (ASCs). The arrangement: method as in PMID 31861646. To be noted: cited from earlier work.
For a further data set, the system named is DSS-induced colitis. The arrangement: method as in PMID 30917627. Conditions: ip every other day 0.4 and 4 mg/kg; cited from earlier work.
In another data set the target is T1, ARK5/NUAK1 (Homo sapiens, UniProt O60285).
T1 construct: purchased Reaction Biology
T1 sequence (O60285 1-661): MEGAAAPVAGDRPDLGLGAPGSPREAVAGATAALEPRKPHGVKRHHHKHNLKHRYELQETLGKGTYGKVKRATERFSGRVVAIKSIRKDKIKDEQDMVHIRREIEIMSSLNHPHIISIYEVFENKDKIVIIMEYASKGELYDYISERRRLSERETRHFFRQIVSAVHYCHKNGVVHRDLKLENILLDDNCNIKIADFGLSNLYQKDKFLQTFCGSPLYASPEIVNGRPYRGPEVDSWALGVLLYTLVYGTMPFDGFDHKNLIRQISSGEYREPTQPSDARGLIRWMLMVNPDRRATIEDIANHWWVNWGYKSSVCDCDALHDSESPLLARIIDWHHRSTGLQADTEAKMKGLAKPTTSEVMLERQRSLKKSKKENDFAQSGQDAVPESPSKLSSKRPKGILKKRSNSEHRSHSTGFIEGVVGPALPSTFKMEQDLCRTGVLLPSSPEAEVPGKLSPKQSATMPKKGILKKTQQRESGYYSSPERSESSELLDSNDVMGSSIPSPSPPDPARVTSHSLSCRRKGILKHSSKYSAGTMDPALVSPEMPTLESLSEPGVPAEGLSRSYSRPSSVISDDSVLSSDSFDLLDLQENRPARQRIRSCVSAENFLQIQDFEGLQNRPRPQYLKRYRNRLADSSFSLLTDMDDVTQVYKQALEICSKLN
The experiment in a line: Reaction Biology kinase activity inhibition. Type of data set: biochemical. To be noted: initial screening. The gist of the method:
(§1)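 γ-^33P-ATP radioisotope readout; >600 protein/lipid kinase panel screen; IC50 confirmation from 5-point concentration series, curve-fitted.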

A further data set concerns the target T2, CDK3/cyclin E (Homo sapiens, UniProt Q00526).
T2 construct: purchased Reaction Biology
The experiment in a line: Reaction Biology kinase activity inhibition. Type of data set: biochemical. Conditions: initial screening. The gist of the method: as §1

The target of another data set is T3, PKCtheta (Homo sapiens, UniProt Q04759).
T3 construct: purchased Reaction Biology
Description: Reaction Biology kinase activity inhibition. The format is biochemical. To be noted: initial screening. The gist of the method: as §1

The target in another data set is T4, STK21/CIT (Homo sapiens, UniProt O14578).
T4 construct: purchased Reaction Biology
The experiment in a line: Reaction Biology kinase activity inhibition. The format is biochemical. Conditions: initial screening. The gist of the method: as §1

A further data set has as its target T5, TYK2 (Homo sapiens, UniProt P29597).
T5 construct: purchased Reaction Biology
The experiment in a line: Reaction Biology kinase activity inhibition. Type of data set: biochemical. Conditions: initial screening. The gist of the method:
as §1

The subject of another data set is AChE. The arrangement: method as in PMID 11374978. To be noted: read-out: AChE inhibition IC50; cited from earlier work.
Data set [4] has as its system acute thermal pain models and CINP. The arrangement: method as in PMID 36249788. Conditions: cited from earlier work.
Data set [5] relates to acetic acid-induced writhing. The arrangement: method as in PMID 19557373. To be noted: cited from earlier work.
Data set [6] relates to serotonin (5-hydroxytryptamine) level. The arrangement: method as in PMID 19801740. Conditions: DOH gavage, highest at 10 mg DOH/kg in frontal cortex and striatum; cited from earlier work.
The next data set concerns experimental sepsis. The arrangement: method as in PMID 20157398. Conditions: ip 1 ~ 100 mg/kg before LPS/GalN or high-dose LPS (20 mg/kg); cited from earlier work.
For data set [7] the following is noted: cited from earlier work.
A further data set has as its system CLP microbial exposure. To be noted: ip twice at 2 h and 4 h after CLP; cited from earlier work.
Another data set deals with CDK9 (Homo sapiens, UniProt P50750). The experiment in a line: KINOMEscan competition binding. The arrangement: purchased Eurofins DiscoverX (KINOMEscan). The protocol: Two distinct platforms were used for initial screening with 50 µM DOH vs. DMSO vehicle. The first was the Eurofins DiscoverX KINOMEscan® (Freemont, CA USA) profiling platform, which employed a proprietary active site-directed competition binding assay to quantitatively measure interactions between a test compound (i.e., DOH) and 468 human protein kinases and disease relevant mutant variants either directly (sterically) or indirectly (allosterically) to prevent a kinase binding to its immobilized substrate (ligand). The top 8 hits were subjected to secondary screening verification by DOH concentration-titration for dissociation constant (Kd). For ROCK1 and ROCK2, DA was chosen for Kd titration as well, because it is ~ 10 × higher than D in peripheral circulation due to its resistance to hydrolysis by carboxyesterase-2 (Fig. 1C).

Where [8] appears, read: DOH (50 µM), Data 1 and Data 2, read-out: % Enzyme Activity (relative to DMSO controls).

Values joined by “and” are separate entries in the source; they are usually repeats but may differ in a detail not shown here. Equal values may be shown once. Read-outs that look alike come from different tables or passages of the source.

T5 sequence (P29597 whole entry): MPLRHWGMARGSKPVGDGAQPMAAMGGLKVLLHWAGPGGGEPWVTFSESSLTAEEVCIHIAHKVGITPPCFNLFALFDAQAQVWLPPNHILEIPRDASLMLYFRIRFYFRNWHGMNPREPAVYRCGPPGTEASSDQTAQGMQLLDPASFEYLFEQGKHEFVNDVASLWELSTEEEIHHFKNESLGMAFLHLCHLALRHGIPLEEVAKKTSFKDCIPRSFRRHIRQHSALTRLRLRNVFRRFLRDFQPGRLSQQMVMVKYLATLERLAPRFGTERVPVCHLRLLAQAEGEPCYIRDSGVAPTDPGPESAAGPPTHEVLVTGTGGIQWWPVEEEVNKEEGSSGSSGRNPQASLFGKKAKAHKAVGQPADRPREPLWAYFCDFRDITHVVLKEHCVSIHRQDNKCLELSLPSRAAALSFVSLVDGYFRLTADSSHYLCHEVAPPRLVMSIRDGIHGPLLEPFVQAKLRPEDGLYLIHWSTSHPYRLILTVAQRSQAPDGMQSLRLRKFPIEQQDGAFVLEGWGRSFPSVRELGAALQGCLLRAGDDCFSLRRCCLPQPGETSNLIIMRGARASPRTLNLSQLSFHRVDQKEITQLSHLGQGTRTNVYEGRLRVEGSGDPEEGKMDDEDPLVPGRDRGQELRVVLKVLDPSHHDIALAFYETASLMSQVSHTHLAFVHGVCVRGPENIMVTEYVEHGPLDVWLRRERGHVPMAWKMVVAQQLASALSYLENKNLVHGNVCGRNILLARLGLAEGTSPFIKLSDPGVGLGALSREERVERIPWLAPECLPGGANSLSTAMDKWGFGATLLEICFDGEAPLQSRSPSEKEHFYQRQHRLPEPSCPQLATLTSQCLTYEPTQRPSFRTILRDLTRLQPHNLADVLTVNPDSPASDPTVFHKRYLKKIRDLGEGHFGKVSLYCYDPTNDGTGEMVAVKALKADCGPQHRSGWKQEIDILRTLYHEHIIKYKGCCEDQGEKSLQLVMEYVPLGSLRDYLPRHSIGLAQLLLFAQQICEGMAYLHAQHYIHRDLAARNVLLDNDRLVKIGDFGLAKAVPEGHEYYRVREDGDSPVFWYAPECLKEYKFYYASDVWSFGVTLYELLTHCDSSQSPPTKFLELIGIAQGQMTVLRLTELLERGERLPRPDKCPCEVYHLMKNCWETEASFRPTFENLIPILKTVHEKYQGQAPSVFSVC
T4 sequence (O14578 whole entry): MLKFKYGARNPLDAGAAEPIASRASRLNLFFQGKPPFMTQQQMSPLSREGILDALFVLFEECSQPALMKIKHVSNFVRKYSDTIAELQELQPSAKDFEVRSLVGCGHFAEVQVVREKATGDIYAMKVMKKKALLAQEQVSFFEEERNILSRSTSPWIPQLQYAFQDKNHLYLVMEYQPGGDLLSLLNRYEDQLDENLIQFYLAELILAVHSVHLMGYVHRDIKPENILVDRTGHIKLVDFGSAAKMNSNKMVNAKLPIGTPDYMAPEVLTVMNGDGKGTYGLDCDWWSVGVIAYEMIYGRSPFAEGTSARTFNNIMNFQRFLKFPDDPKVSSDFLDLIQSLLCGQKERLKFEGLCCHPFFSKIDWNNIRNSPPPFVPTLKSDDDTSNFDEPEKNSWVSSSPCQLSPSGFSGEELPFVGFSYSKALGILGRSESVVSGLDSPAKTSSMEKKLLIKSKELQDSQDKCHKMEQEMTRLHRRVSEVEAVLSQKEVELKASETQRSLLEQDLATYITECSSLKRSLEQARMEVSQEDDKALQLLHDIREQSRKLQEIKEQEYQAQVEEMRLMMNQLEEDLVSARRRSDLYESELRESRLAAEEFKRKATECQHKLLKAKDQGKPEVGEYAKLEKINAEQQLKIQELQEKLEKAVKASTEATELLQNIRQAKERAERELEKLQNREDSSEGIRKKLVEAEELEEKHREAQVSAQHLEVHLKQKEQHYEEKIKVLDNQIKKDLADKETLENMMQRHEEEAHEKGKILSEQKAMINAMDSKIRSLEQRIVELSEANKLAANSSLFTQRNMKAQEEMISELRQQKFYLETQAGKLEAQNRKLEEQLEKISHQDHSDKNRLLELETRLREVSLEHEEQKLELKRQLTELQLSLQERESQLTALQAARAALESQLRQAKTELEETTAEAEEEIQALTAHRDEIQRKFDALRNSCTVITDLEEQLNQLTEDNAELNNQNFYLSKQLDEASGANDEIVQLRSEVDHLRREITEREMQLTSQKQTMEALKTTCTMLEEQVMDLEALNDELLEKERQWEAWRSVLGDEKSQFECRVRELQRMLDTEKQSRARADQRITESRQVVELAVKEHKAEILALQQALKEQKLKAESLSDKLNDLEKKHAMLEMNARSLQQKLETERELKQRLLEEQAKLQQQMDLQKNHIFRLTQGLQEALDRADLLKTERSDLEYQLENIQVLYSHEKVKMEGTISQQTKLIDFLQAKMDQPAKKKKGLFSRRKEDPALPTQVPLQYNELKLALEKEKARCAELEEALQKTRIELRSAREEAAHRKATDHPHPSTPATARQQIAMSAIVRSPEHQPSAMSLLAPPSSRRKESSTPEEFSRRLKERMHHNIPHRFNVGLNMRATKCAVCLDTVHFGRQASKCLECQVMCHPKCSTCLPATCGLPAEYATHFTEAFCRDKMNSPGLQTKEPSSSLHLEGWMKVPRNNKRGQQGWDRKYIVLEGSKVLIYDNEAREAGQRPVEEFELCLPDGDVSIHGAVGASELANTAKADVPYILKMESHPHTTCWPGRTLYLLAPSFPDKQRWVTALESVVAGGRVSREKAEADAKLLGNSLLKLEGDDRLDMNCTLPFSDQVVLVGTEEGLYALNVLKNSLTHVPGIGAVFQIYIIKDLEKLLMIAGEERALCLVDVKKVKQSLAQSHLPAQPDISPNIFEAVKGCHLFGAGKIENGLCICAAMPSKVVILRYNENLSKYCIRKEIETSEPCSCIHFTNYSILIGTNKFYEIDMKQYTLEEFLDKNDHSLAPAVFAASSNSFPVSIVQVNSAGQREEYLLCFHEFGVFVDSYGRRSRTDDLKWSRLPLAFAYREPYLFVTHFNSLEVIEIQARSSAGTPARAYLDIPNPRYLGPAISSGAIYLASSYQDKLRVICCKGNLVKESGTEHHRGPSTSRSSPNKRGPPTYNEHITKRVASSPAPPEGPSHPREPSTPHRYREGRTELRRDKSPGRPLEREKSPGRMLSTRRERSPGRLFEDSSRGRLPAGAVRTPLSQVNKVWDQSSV
T2 sequence (Q00526 whole entry): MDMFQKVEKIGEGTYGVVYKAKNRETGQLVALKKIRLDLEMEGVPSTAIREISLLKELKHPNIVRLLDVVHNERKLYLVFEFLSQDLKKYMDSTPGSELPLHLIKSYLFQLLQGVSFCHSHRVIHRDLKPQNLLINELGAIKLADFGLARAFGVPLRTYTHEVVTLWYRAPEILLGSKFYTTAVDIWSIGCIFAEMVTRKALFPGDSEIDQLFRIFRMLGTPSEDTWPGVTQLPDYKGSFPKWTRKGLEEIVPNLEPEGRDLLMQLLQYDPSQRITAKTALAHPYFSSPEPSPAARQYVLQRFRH
T2 sequence (P24864 whole entry partner): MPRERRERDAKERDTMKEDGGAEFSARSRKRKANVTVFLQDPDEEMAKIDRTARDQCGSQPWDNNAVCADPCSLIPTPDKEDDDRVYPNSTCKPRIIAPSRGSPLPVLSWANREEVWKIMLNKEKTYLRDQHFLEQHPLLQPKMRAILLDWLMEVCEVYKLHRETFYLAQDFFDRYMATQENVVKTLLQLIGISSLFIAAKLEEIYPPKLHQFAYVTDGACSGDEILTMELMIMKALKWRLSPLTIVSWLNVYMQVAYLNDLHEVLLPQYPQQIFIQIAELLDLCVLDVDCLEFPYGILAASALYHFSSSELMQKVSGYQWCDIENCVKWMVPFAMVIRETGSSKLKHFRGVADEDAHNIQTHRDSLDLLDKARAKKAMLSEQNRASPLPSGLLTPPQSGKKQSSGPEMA
T3 sequence (Q04759 whole entry): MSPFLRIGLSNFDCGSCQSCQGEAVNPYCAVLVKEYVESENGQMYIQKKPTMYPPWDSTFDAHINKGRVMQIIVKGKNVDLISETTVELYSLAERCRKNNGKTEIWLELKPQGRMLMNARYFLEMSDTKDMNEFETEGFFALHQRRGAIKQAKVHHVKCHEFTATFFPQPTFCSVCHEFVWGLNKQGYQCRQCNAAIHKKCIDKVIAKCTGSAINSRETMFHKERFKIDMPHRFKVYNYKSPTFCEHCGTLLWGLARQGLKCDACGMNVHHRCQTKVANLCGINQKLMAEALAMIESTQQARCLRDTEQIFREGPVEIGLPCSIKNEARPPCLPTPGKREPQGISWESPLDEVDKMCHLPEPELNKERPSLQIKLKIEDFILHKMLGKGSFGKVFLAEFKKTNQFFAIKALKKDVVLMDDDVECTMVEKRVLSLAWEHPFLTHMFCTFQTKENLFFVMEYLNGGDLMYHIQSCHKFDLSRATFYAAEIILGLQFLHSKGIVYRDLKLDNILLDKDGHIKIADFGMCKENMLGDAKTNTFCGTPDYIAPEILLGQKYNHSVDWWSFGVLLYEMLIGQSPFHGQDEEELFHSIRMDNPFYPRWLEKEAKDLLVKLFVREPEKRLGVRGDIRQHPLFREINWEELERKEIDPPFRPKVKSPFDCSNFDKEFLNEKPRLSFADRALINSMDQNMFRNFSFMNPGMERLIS
Chain of CDK9 (P50750 whole entry): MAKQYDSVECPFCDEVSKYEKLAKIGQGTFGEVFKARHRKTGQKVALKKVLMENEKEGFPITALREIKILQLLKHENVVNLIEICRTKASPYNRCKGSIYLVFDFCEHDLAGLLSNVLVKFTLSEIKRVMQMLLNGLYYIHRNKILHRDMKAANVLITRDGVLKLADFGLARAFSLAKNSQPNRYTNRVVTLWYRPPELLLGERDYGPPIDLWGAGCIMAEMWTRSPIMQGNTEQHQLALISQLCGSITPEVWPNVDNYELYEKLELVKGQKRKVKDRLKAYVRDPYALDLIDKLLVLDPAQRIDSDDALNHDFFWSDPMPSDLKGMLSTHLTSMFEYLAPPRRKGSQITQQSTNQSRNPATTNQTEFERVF

With `C/C=C(/C)C(=O)O[C@H]1Cc2cc3ccc(=O)oc3cc2OC1(C)C` [DA, decursinol angelate], the concentration for half-maximal inhibition (IC50) (as a rule, the concentration that inhibits the measured activity by half) in the data set with GDH is ~1400 nM and 1400 nM. Moreover, the “sleeping time by pentobarbital (42 mg/kg)” value in data set [1] (dose-dependent) is “prolonged sleeping time”. Besides, in data set [1] (oral DA 10, 25 and 50 mg/kg), the spontaneous locomotor activity entry is “markedly suppressed spontaneous locomotor activity”. Besides, the “intracellular Cl- influx level” value in data set [2] (DA 0.001, 0.01 and 0.1 µg/ml ≈ 0.003, 0.03 and 0.3 µM) was “increased”. In addition, the “protein expression of GAD65/67 and GABAA receptor subtypes” value in [2] was “increased the protein expression”. Further, the lipid accumulation result in the data set with HepG2 cells is reported as “suppressed lipid accumulation”. Besides, the adipocyte differentiation result in data set [3] is listed as “significantly inhibited adipocyte differentiation”. For the same compound, the severity of colitis entry in the data set with DSS-induced colitis is on record as “attenuated the severity of colitis”.
Turning to `CC1(C)Oc2cc3oc(=O)ccc3cc2C[C@@H]1O` [DOH, decursinol], the inhibition (in general, the relative decrease from the control value, in per cent) at 50 µM against ARK5/NUAK1 (DOH 50 µM) came out at 27.4%; on CDK3/cyclin E (DOH 50 µM) it was 30.3%; at PKCtheta (DOH 50 µM) it was 30.1%; at STK21/CIT (DOH 50 µM), 28.3%; against TYK2 (DOH 50 µM), 32.4%. In addition, the “% Enzyme Activity (relative to DMSO controls)” value at ARK5/NUAK1 (DOH (50 µM), Data 1 and Data 2) came to 72.5%; on CDK3/cyclin E (DOH (50 µM), Data 1 and Data 2), 69.4%; at PKCtheta (DOH (50 µM), Data 1 and Data 2), 69.2%; on STK21/CIT (DOH (50 µM), Data 1 and Data 2), 71.1%; at TYK2 (DOH (50 µM), Data 1 and Data 2) it was 62.8%. The remaining activity at 50 µM on ARK5/NUAK1 (setting [8]) came to 72.6%; on CDK3/cyclin E (setting [8]), 70%; on PKCtheta (setting [8]), 70.5%; at STK21/CIT (setting [8]), 72.2%; on TYK2 (setting [8]), 72.3%. The IC50 in the data set on AChE was 28000 nM. For the same compound, the “hypothermia and sedation (ataxia)” value in data set [4] is listed as “dose dependent hypothermia”. Moreover, in data set [4] (ip DOH 50 mg/kg), the “antinociception in hot plate and tail-flick assays” value is on record as “replicated antinociception effects”. In addition, the “mechanical allodynia of mice with cisplatin-neuropathy (Von Fry test)” value in data set [4] (ip DOH 50 mg/kg) was “reversed the mechanical allodynia”. Besides, the “time to tolerance development” value in data set [4] (once-daily ip, hot plate, tail-flick and CINP mice) is ~ 10 days. Also, the analgesic effect entry in data set [5] (oral 50 mg/kg) is reported as “efficacious”; in data set [5] (oral 25 or 10 mg/kg), “not at 25 or 10 mg/kg”. In addition, in data set [6], the “serotonin (5-hydroxytryptamine) level in brain” value was “increase”. Also, the “reduction of sepsis lethality ED50” value in the data set on experimental sepsis was ~ 10 mg/kg. Also, the AUCDOH/AUCtotal in [7] (conversion of D and DA to DOH) was 98.7%. Moreover, in [7] (read-out: mean peak concentration Cmax, 10 men and 10 women, 800 mg INM176 AGN oral), the Cmax is 2480 nM. Besides, the “dose giving plateau of therapeutic benefit” value in the data set with CLP microbial exposure is recorded as no less than 10 mg/kg. Moreover, at CDK9 (read-out: Substrate bound % Control), the kinase bound, % of control at 50 µM came to 12%. Moreover, on CDK9 (validation Kd titration, 0.003 to 50 µM), the dissociation constant Kd (in general, the free concentration of one partner at which half of the binding sites on the other are occupied at equilibrium, for simple one-to-one binding) is greater than 50000 nM.
